Results reported in patent publication US20240124564A1, “ANTI-CLEAVED HISTONE H3 MONOCLONAL ANTIBODY THAT SPECIFICALLY RECOGNIZES NEUTROPHIL EXTRACELLULAR TRAPS” (Max-Planck-Gesellschaft zur Förderung der Wissenschaften …, priority 2021, published 2024).
No end group written: not given here.

Legend:
[1] = test system: Histone H3 cleavage by serine proteases; assay: PMA induced histone H3 cleavage in neutrophils (immunoblot) with serine protease inhibition; type: cell-based, human; details: preincubation 30 min
Protocol: (§1) Lysates were resolved by SDS-PAGE and immunoblotted with N- and C-terminal antibodies to H3. GAPDH was used as a loading control. […] At 150 min the cells were fixed and stained for neutrophil elastase (NE), chromatin (using a H2A-H2B-DNA antibody PL2.3) and DNA using DAPI (4′,6-diamidino-2-phenylindole). NS: non-stimulated. Images were taken at 63× and the scale bar is 20 μm.
For all experiments, unless indicated, neutrophils were cultured RPMI (GIBCO 32404014) supplemented with 10 mM HEPES and 0.1% (w/v) HSA, which had been preequilibrated in CO2 conditions for 1 h. Cells were routinely cultured at 37° C., 5% CO2 unless indicated. For all experiments, stimuli were added to cell reactions as 10× working stock solutions freshly diluted in RPMI. For inhibition experiments, a 10× inhibitor stock and appropriate vehicle controls, were added to the cells and preincubated for the times stated in the figure legends.
To analyse proteins, lysates were prepared from stimulated or resting neutrophils. Cells were seeded in culture medium in 1.5 ml microcentrifuge tubes at 1×10^7 cells/ml with 5×10^6 cells per time point. After addition of the inhibitor or agonist, cells were gently mixed and incubated at 37° C. with gentle rotation. […]
For routine protein analysis, samples were analysed by 1D SDS-PAGE and immunoblotted. […] Blotting efficacy was assessed by Ponceau S staining. […]

NET formation = NET formation by immunofluorescent confocal microscopy with serine protease inhibition; type: cell-based, human; details: preincubation, PMA 50 nM, 150 min
Protocol: as §1
For immunofluorescent imaging of purified cells, neutrophils/PBMCs were seeded in 24 well dishes containing glass coverslips, with 1×10^5 cells per well and incubated at 37° C. for 1 h allowing to adhere to the coverslip. At this stage, inhibitors and priming factors were included as indicated. Reactions were stopped by the addition of paraformaldehyde (2% [w/v]) for 20 min at RT or 4° C. overnight. After fixation, cells were washed and stained as previously described (Brinkmann et al 2012). Briefly, all steps were performed by floating inverted coverslips on drops of buffer on laboratory parafilm. Cells were permeabilised with PBS, pH 7.5, 0.5% (v/v) Triton X-100 for 3 min. For screening and quantification experiments, this permeabilization step was extended to 10 min. […]

3D9 binding to NETs = assay: Peptide competition assay; parameters: species or system human; details: 3D9 preincubated overnight with peptide; PMA 3 h neutrophils
Protocol: NS: non-stimulated. Images were taken on an upright fluorescent microscope at 20×. Scale bars-50 μm (full field) and 10 μm (inset). • (B) Immunoblots of lysates prepared from neutrophils stimulated with PMA (50 nM) for the times indicated in the figure. […] Samples were serially diluted and immobilized on a high affinity ELISA plate according to DNA content (for NETs, chromatin and DNA) or protein content (for recombinant histone H3) as determined by PicoGreen and bicinchoninic acid assays respectively. Starting concentration was 1 μg/ml DNA or protein. […] Data is presented for dilution 200 ng/ml. REIRR indicates unconjugated branched immunising peptide control formed by SEQ ID NO 11 and SEQ ID NO 26. This peptide was coated at 20 ng/ml. […] (F, G) Neutrophils were seeded in 10 ml petri dishes and stimulated for 3 h with PMA. Before total cell lysis and immunoprecipitation, NETs were digested with benzonase to liberate histones and octamers for antibody binding. […] (F) Coomassie stained gel of proteins immunoprecipitated by 3D9 or isotype control and the corresponding silver stained gel. The predicted cleaved H3 and intact H3 bands are indicated. […]
Neutrophils were seeded on coverslips in a 24 well dish (1×10^5 cells/well) and stimulated with PMA for 3 h and fixed with 2% PFA. […] Peptide competition was assessed visually by fluorescent microscopy.

NCCc1ccc(S(=O)(=O)F)cc1 [AEBSF, 4-[2-aminoethyl] benzensulfonylfluoride]
effect on H3 cleavage upon PMA stimulation [1]: inhibited H3 cleavage
effect on NET formation (NET formation): inhibited NET formation and nuclear decondensation

branched immunising peptide: branched peptide formed by REIRR (SEQ ID NO 11) and REIRRKC-NH2 (SEQ ID NO 12) (also: branched: C-terminus of chain 1 amide-linked to Lys6 side chain of chain 2, chain 2 conjugated to KLH via Cys thiol, lactam at chain B 6 to a chain's C-terminus; listed as Homo sapiens)
competition of 3D9 staining of NETs (3D9 binding to NETs): could block 3D9 binding to NETs
